In PMC7179450, “Primary Human Hepatocytes, But not HepG2 or Balb/c 3T3 Cells, Efficiently Metabolize Salinomycin and Are Resistant to Its Cytotoxicity” (Molecules, 2020):
Read-outs that look alike come from different tables or passages of the source.

How the values were obtained:
humans = details: accidental poisoning: nausea, photophobia, limb weakness, tachycardia, muscle pain, mild rhabdomyolysis with myoglobinuria; cited from earlier work
Balb/c 3T3 cells = experiment: TPC assay in Balb/c 3T3; format: cell-based, mouse; details: for EC50: Mus musculus, read-out: EC50 (effective concentration)
Procedure: (§1) The HepG2 cell line was purchased from the American Type Culture Collection (ATCC® HB-8065™). The cells were cultured in Minimum Essential Medium Eagle (MEME) (Sigma–Aldrich Co. (St. Louis, MO, USA)). Normal murine embryonic fibroblasts, Balb/c 3T3 clone A31 cell line (gift from Department of Swine Diseases of the National Veterinary Research Institute in Pulawy) was cultured in Dulbecco’s Modified Eagle’s Medium (DMEM) (Invitrogen Corporations (Paisley, UK)). The media were supplemented with 10% BCS (Balb/c 3T3), 10% FBS (HepG2), 1% L-glutamine, and 1% antibiotic solution. The cells were maintained in 75 cm^2 cell culture flasks in humidified incubator at 37 °C, in an atmosphere of 5% CO2. The medium was refreshed every two or three days and the cells were trypsinized by 0.25% trypsin–0.02% EDTA after reaching 70–80% confluence. The initial cell viability was determined with the trypan blue exclusion test. Single cell suspensions were prepared and adjusted to a density of 2 × 10^5 cell/mL (HepG2) and 1 × 10^5 cell/mL (Balb/c 3T3). The cell suspension was transferred to 96-well plates (100 µL/well) and incubated for 24 h before exposure to the studied drugs.
(§2) The concentration ranges of the drugs were chosen according to their solubility and their plasma level. Each drug was dissolved in DMSO. The final concentration of DMSO was 0.1% or 0.2% in the medium for both samples and corresponding controls. […] All drug solutions in medium were freshly prepared and protected from light. SAL was tested in seven concentrations from 0.39 to 25 µg/mL. Tiamulin was added in two concentrations (1 and 10 µg/mL) or just one concentration (1 µg/mL) to cell lines or human hepatocytes, respectively. […] The cytotoxicity was assessed after 24 and 48 h of exposure of cell lines or after 12 and 24 h exposure of PHH. […]
The assay was based on staining total cellular protein [14]. […] The absorbance was measured at 595 nm in a microplate reader using blank as a reference. Cytotoxicity was expressed as a percentage of the negative control (0.1% or 0.2% DMSO).

hepatoma tumor = details: mice, doses of 4 and 8 mg/kg b.w.; cited from earlier work
HepG2 cells [1] = experiment: LDH leakage assay in HepG2; format: cell-based; details: Homo sapiens, mean ± SEM, n = 3, read-out: EC50 (effective concentration)
Procedure: as §1, with “The medium was refreshed every two or three days and the cells were trypsinized by 0.25% trypsin–0.02% EDTA after reaching 70–80% confluence.” left out, “Single cell suspensions were prepared and adjusted to a density of 2 × 10^5 cell/mL (HepG2) and 1 × 10^5 cell/mL (Balb/c 3T3). The cell suspension was transferred to 96-well plates (100 µL/well) and incubated for 24 h before exposure to the studied drugs.” left out
The concentration ranges of the drugs were chosen according to their solubility and their plasma level. […] The cytotoxicity was assessed after 24 and 48 h of exposure of cell lines or after 12 and 24 h exposure of PHH. […]
The integrity of the plasma membrane was assessed through the test of lactate dehydrogenase (LDH) release, which was monitored using a commercially available Cytotoxicity Detection Kit (LDH) (Roche Diagnostics, Basel, Switzerland). […] The absorbance was measured at 492 nm in a microplate reader using a blank as a reference.

HepG2 cells [2] = experiment: NRU assay in HepG2; format: cell-based, human; details: for EC50: Homo sapiens, read-out: EC50 (effective concentration)
Procedure: as §1
as §2, with “µg/mL.” for “µg/mL. Tiamulin was added in two concentrations (1 and 10 µg/mL) or just one concentration (1 µg/mL) to cell lines or human hepatocytes, respectively.”
The assay, based on staining of living cells by neutral red (NR), was performed according to the protocol described by Borenfreund and Puerner. […] After 10 min of shaking, the absorbance of the dissolved NR was measured at 540 nm using a blank as a reference. Cytotoxicity was expressed as a percentage of the negative control (0.1% or 0.2% DMSO).

[3] = Cytotoxicity battery in fibroblasts; format: cell-based; details: mouse, Balb/c 3T3 fibroblasts, inhibiting lysosomal and mitochondrial activity and synthesis of cellular proteins, read-out: cytotoxic concentrations
Procedure: as §2, with “respectively. Prednisolone was tested in one concentration—1 µg/mL independent of the type of cells.” for “respectively.”
The metabolic activity of living cells was assessed by measuring the activity of dehydrogenases. […] The plate was shaken for 15 min at room temperature and transferred to a microplate reader to measure the absorbance at 570 nm, using a blank as a reference. Cytotoxicity was expressed as a percentage of the negative control (0.1% or 0.2% DMSO).
The assay, based on staining of living cells by neutral red (NR), was performed according to the protocol described by Borenfreund and Puerner. […] After 10 min of shaking, the absorbance of the dissolved NR was measured at 540 nm using a blank as a reference. […]

cell lines = details: cited from earlier work

CC[C@@H](C(=O)[C@@H](C)[C@@H](O)[C@H](C)[C@@H]1O[C@@H]([C@@H](CC)C(=O)O)CC[C@@H]1C)[C@H]1O[C@]2(C=C[C@@H](O)[C@]3(CC[C@@](C)([C@H]4CC[C@](O)(CC)[C@H](C)O4)O3)O2)[C@H](C)C[C@@H]1C [SAL, salinomycin]
toxicity in a human (humans): severe toxicity
lowest concentration with significant effect on total protein content (Balb/c 3T3 cells; Balb/c 3T3, 24 h, SAL alone or in both drug combinations (Figure S3)): 0.39 µg/mL
EC50 (Balb/c 3T3 cells; BALB/c3T3, 24 h): 7.9 ± 1.1 µg/mL
EC50 (Balb/c 3T3 cells; BALB/c3T3, 48 h): 1.4 ± 0.5 µg/mL
effect on hepatoma tumor (hepatoma tumor): significantly reducing the hepatoma tumor
EC50 (HepG2 cells [1]; 24 h exposure): > 25 µg/mL
EC50 (HepG2 cells [1]; 48 h exposure): 13.8 ± 0.2 µg/mL
lowest concentration with significant effect on lysosomal activity (HepG2 cells [2]; HepG2, 24 h, SAL alone or in both drug combinations (Figure S2)): 0.39 µg/mL
EC50 (HepG2 cells [2]; HepG2, 24 h): 0.6 ± 0.2 µg/mL
EC50 (HepG2 cells [2]; HepG2, 48 h): < 0.39 µg/mL
EC50 [3]: 0.6 to 10 µg/mL
EC50 (cell lines): 0.1 to 30 µM
EC50 values, cytotoxicity to cell lines (cell lines): 0.08 to 22.5 µg/mL
